According to PubChem BioAssay AID1033 (Sanford-Burnham Center for Chemical Genomics, 2008):
pKd: −log10 of the molar value. “And” between values parts separate entries of the source, which are not always exact repeats. Equal entries are not always repeated. The source made the active and inactive calls. No rule for the calls is given here.

The compounds below were run against Chaperone protein DnaK (Escherichia coli (strain K12)) (UniProt P0A6Y8) (assay: binders of DnaK substrate-binding domain, biophysical, NMR, chaperone (AID 1033)). Conditions: Purified DnaK SBD, NMR ligand binding.
Chain of Chaperone protein DnaK (Escherichia coli (strain K12)) (P0A6Y8 whole entry, looked up, the tested form may be a part): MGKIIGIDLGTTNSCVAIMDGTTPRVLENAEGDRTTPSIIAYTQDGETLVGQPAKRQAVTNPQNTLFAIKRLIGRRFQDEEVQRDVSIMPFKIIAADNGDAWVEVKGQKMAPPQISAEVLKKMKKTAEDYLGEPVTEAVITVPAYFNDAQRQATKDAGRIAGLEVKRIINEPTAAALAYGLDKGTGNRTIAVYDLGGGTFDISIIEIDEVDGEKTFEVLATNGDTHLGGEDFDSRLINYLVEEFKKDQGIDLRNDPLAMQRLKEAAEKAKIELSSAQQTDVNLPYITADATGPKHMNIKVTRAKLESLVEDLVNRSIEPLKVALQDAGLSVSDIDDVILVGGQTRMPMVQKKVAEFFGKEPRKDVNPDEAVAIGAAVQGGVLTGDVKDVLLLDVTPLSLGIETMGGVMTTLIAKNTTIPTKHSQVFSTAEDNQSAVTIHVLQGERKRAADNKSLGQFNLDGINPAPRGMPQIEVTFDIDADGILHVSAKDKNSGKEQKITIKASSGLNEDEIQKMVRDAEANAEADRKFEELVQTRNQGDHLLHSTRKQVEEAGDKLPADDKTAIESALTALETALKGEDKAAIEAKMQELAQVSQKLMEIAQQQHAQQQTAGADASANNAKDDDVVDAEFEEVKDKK
CC(=O)OC1CCC23CC1(C)CCC2C(C)(C)CC3OC(C)=O (configuration not stated) was tested, and the Kd was > 4 mM (inactive).
For COc1cc2[nH]c(=S)n(C)c(=O)c2cc1OC, the Kd was > 4 mM (inactive).
O=C(O)c1cccc(N2C(=O)C3CC=CCC3C2=O)c1 (configuration not stated) was tested, and the Kd was > 4 mM (inactive).
c1cc(CNc2ccc3c(c2)OCCO3)ccn1 was tested, and the Kd was > 4 mM (inactive).
For COC(=O)c1ccccc1N(C)S(C)(=O)=O, the Kd was > 4 mM (inactive).
For C=C1C(=O)O[C@@H]2C[C@@]3(C)CCC[C@H](C)C3=C[C@H]12, the Kd was > 4 mM (inactive).
For CC1CC[C@@]2(OC1)O[C@H]1CC3C4CC[C@@H]5C[C@@H](O)CC[C@]5(C)C4CC[C@]3(C)[C@H]1[C@@H]2C (some centres not stated), the Kd was > 4 mM (inactive).
For O=C(O)c1ccccc1C(=O)Nc1ccccc1, the Kd was > 4 mM (inactive).
With CCn1c(C)c(C(C)=O)c(N2CCN(C)CC2)nc1=S the Kd was > 4 mM (inactive).
In the case of CC(=O)c1c(C)nc(-c2cccs2)n1O, the Kd was > 4 mM (inactive).
Cc1cc(C)c2nncn2n1 was tested, and the Kd was > 4 mM (inactive).
With CC(=O)Nc1ccc(N2C(=O)C=CC2=O)cc1C the Kd was > 4 mM (inactive).
With CCSc1nc(C)c(CC)c(C)c1C(N)=O the Kd was > 4 mM (inactive).
For c1cc2n(c1)CCNC2c1ccncc1 (configuration not stated), the Kd was > 4 mM (inactive).
CC1CCN(C(=O)c2ccc(NS(C)(=O)=O)cc2)CC1 was tested, and the Kd was > 4 mM (inactive).
For NC(=O)C1CCN(CC2CC=CCC2)CC1 (configuration not stated), the Kd was > 4 mM (inactive).
For COc1cc(O)c2c(=O)c(O)c(-c3ccc(O)c(O)c3)oc2c1, the Kd was > 4 mM (inactive).
In the case of O=C(O)CCCNC(=O)c1ccccc1C(=O)O, the Kd was > 4 mM (inactive).
Cn1cnc2c(=O)[nH]cc([N+](=O)[O-])c21 was tested, and the Kd was > 4 mM (inactive).
[O-][n+]1c2ccccc2[n+]([O-])c2cc(O)ccc21 was tested, and the Kd was > 4 mM (inactive).
With CCn1nnc2c(NCc3ccccn3)ncnc21 the Kd was > 4 mM (inactive).
In the case of O=C(Nc1ccon1)c1ccccc1Cl, the Kd was > 4 mM (inactive).
CCCNC(=O)CSc1ncccc1C(=O)O was tested, and the Kd was > 4 mM (inactive).
OCc1cc2ccccc2o1 was tested, and the Kd was > 4 mM (inactive).
In the case of Cc1cc2ncn(S(=O)(=O)N3CCOCC3)c2cc1C, the Kd was > 4 mM (inactive).
For O=C1CCCc2c(O)cccc21, the Kd was > 4 mM (inactive).
With Cc1cc(C(=O)N2CCN(c3ccccn3)CC2)c(C)o1 the Kd was > 4 mM (inactive).
For CC[C@@]1(O)C(=O)OCc2c1cc1n(c2=O)Cc2cc3ccccc3nc2-1, the Kd was > 4 mM (inactive).
With CCC(=O)Nc1ccccc1NC(C)=O the Kd was > 4 mM (inactive).
With C[C@@H]1C(=O)OC2[C@H](O)C34[C@@H]5OC(=O)[C@@]3(O[C@@H]3OC(=O)[C@H](O)[C@@]34[C@H](C(C)(C)C)[C@H]5O)[C@]21O (some centres not stated) the Kd was > 4 mM (inactive).
For Cn1nnc2cc(C(=O)N3CCSCC3)ccc21, the Kd was > 4 mM (inactive).
For O=C(NCCO)c1ccccc1I, the Kd was > 4 mM (inactive).
With Oc1cc(O)c2c(c1)O[C@H](c1cc(O)c(O)c(O)c1)[C@H](O)C2 the Kd was > 4 mM (inactive).
For CC(C)CCCC(C)C1CCC2C3CC(=O)[C@H]4C[C@@H](O)CC[C@]4(C)C3CC[C@]12C (some centres not stated), the Kd was > 4 mM (inactive).
O=C(Nc1cnccn1)c1cccs1 was tested, and the Kd was > 4 mM (inactive).
For O=C(O)CCC(=O)Nc1nnc(C(F)(F)F)s1, the Kd was > 4 mM (inactive).
Cn1nc(C(=O)NCc2cccnc2)c2ccccc2c1=O was tested, and the Kd was > 4 mM (inactive).
For c1ccc(-c2csc(Nc3cccnc3)n2)nc1, the Kd was > 4 mM (inactive).
In the case of CC(=O)NC(=S)Nc1ccccc1N1CCOCC1, the Kd was > 4 mM (inactive).
COc1ccccc1C(=O)NC1CCN(C)CC1 was tested, and the Kd was > 4 mM (inactive).
For C[C@H]1C[C@@H](O)[C@]2(O)[C@@]13CC(=O)OC[C@@]2(C)[C@](C)(O)C(=O)C3, the Kd was > 4 mM (inactive).
For Cc1cc(C)c(C(N)=O)c(=S)[nH]1, the Kd was > 4 mM (inactive).
In the case of CCc1ccccc1OCc1nnc(N)s1, the Kd was > 4 mM (inactive).
COc1ccc(Cl)cc1NC(=O)C(N)=O was tested, and the Kd was > 4 mM (inactive).
For Cc1ccc(N2NC(=O)CC2=O)cc1C, the Kd was > 4 mM (inactive).
In the case of COc1ccc([C@H]2Oc3c(I)c(OC)cc(OC)c3C[C@@H]2O)cc1OC, the Kd was > 4 mM (inactive).
For Cn1nnc2cc(C(=O)NCc3ccco3)ccc21, the Kd was > 4 mM (inactive).
For CC(C)(C)C(=O)Nc1ncc(C(F)(F)F)cc1Cl, the Kd was > 4 mM (inactive).
In the case of Cc1noc(C)c1CSc1nc2ccccc2[nH]1, the Kd was > 4 mM (inactive).
With CC1/C(=N/O)C[C@@H]2C[C@H]1C2(C)C (some centres not stated) the Kd was > 4 mM (inactive).
In the case of O=C(Nc1ccon1)c1sc2cc(F)ccc2c1Cl, the Kd was > 4 mM (inactive).
With Nn1c(CN2CCCCC2)nc2ccccc2c1=O the Kd was > 4 mM (inactive).
Cc1c(C(=O)NCc2ccccn2)oc2ccccc12 was tested, and the Kd was > 4 mM (inactive).
In the case of CC(=O)N(c1ccccc1)C1C=CS(=O)(=O)C1 (configuration not stated), the Kd was > 4 mM (inactive).
O=c1cc(-c2ccccc2)oc2cc(O)cc(O)c12 was tested, and the Kd was > 4 mM (inactive).
N/C(=N/O)C1COc2ccccc2O1 (configuration not stated) was tested, and the Kd was > 4 mM (inactive).
In the case of NC(=O)CSc1nc2[nH]ncc2c(=O)[nH]1, the Kd was > 4 mM (inactive).
In the case of COc1ccccc1C(=O)Nc1ccccn1, the Kd was > 4 mM (inactive).
For COCCn1c(SC)nc2c1c(=O)[nH]c(=O)n2C, the Kd was > 4 mM (inactive).
COc1ccc(-c2oc3cc(O[C@H]4O[C@H](CO)[C@@H](O)[C@H](O)[C@H]4O)c(OC)c(O)c3c(=O)c2OC)cc1O was tested, and the Kd was > 4 mM (inactive).
O=C(O)c1sccc1-n1cccc1 was tested, and the Kd was > 4 mM (inactive).
With COc1cccc(/C=N/N=C2/NC(=O)CS2)c1 the Kd was > 4 mM (inactive).
With Cn1ccnc1C(O)c1ccccc1 (configuration not stated) the Kd was > 4 mM (inactive).
CC1(C)O[C@H]2[C@H](O)C[C@](O)(C(N)=O)C[C@H]2O1 was tested, and the Kd was > 4 mM (inactive).
In the case of Cc1cc(C)n(S(=O)(=O)c2ccc(C(C)(C)C)cc2)n1, the Kd was > 4 mM (inactive).
For Cc1nnc(SCC(=O)Nc2ccccc2)[nH]c1=O, the Kd was > 4 mM (inactive).
CC(O)C(=O)N/N=C/c1cccs1 (configuration not stated) was tested, and the Kd was > 4 mM (inactive).
For NC(=O)c1ccc(NC(=O)C2CC2)cc1, the Kd was > 4 mM (inactive).
For COc1cc(/C=C2/NC(=S)NC2=O)cc(Cl)c1O, the Kd was > 4 mM (inactive).
For CCn1cnc2cc(NCc3ccncc3)ccc21, the Kd was > 4 mM (inactive).
COc1ccc(-c2cc(=O)c3c(O)cc(O)c(-c4cc(-c5cc(=O)c6c(O)cc(O)cc6o5)ccc4OC)c3o2)cc1 was tested, and the Kd was > 4 mM (inactive).
CNC(=O)C1COc2ccccc2O1 (configuration not stated) was tested, and the Kd was > 4 mM (inactive).
With O=C(O)c1ccc2snnc2c1 the Kd was > 4 mM (inactive).
CSc1nc(O)cc(=O)[nH]1 was tested, and the Kd was > 4 mM (inactive).
For O=C1CSC(=S)N1N1C(=O)C2C3C=CC(C3)C2C1=O (configuration not stated), the Kd was > 4 mM (inactive).
With O=C(Nc1ccc2c(c1)OCO2)c1c(F)cccc1F the Kd was > 4 mM (inactive).
For O=C(c1ccccc1)c1ccccc1C(=O)N1CCCC1, the Kd was > 4 mM (inactive).
Cc1cc(C(=O)c2c(C)nn(C)c2Cl)n(C)n1 was tested, and the Kd was > 4 mM (inactive).
O=c1/c(=C\c2cccnc2)sc2nc3ccccc3n12 was tested, and the Kd was > 4 mM (inactive).
Nc1nc(-c2ccccc2)ns1 was tested, and the Kd was > 4 mM (inactive).
For O=C(CN1C(=O)c2cccc3cccc(c23)C1=O)NO, the Kd was > 4 mM (inactive).
With CC(=O)Nc1sc(C)c(C)c1C(N)=O the Kd was > 4 mM (inactive).
For CC(CCC(=O)O)[C@H]1CCC2C3C(C[C@H](O)[C@@]21C)[C@@]1(C)CC[C@@H](O)C[C@H]1C[C@H]3O (some centres not stated), the Kd was > 4 mM (inactive).
Cc1noc(C)c1C(=O)Nc1ccccc1-c1ccccc1 was tested, and the Kd was > 4 mM (inactive).
In the case of O=C(NCc1ccccc1F)c1cccs1, the pKd was 3.80 and > 3.70.
O=C(O)CNC(=O)c1ccc([N+](=O)[O-])cc1 was tested, and the Kd was > 4 mM (inactive).
CC1NC(C(=O)O)Cc2c1[nH]c1ccccc21 (configuration not stated) was tested, and the Kd was > 4 mM (inactive).
In the case of CC(C)/C(O)=C1/C(=O)O[C@@H](c2ccoc2)[C@]2(C)C(O)[C@@H](O)[C@@]34OC5(C)OC67CC(C)(C(O)[C@]6(O)[C@@H](O)[C@]3(O5)C12)[C@H](CC(=O)O)[C@]74C (some centres not stated), the Kd was > 4 mM (inactive).
For COC(=O)CSc1ncnc2c(C)csc12, the Kd was > 4 mM (inactive).
With O=C(NCc1cccc(Cl)c1)c1cccnc1 the Kd was > 4 mM (inactive).
In the case of Cc1cc(NC(=O)CS(=O)(=O)c2ccccc2)no1, the Kd was > 4 mM (inactive).
For CCOC(=O)c1c[nH]c2c(F)cccc2c1=O, the Kd was > 4 mM (inactive).
With Cc1cc(SCC(=O)Nc2nccs2)nc(=O)[nH]1 the Kd was > 4 mM (inactive).
CC(=O)NC1=NN(c2ccccc2)C(=O)C1 was tested, and the Kd was > 4 mM (inactive).
COC1=CC(=O)C=C(OC)C1=O was tested, and the Kd was > 4 mM (inactive).
For CC(=O)Nc1cc(C(F)(F)F)ccc1N1CCOCC1, the Kd was > 4 mM (inactive).
In the case of Cc1oc(-c2ccccc2)nc1CCO, the Kd was > 4 mM (inactive).
For Cc1ccc(S(=O)(=O)CC(N)=O)cc1, the Kd was > 4 mM (inactive).
With COc1cc(-c2coc3cc(OCc4ccccc4)c(OC)c(O)c3c2=O)cc(O)c1OC the Kd was > 4 mM (inactive).
With CNC(=O)C(=O)NCc1ccc(C)cc1 the Kd was > 4 mM (inactive).
With O=C1CC(NCc2ccco2)C(=O)NN1 (configuration not stated) the Kd was > 4 mM (inactive).
In the case of COc1ccccc1-c1cn[nH]c(=S)n1, the Kd was > 4 mM (inactive).
With Cc1ccccc1OCC(=O)O the Kd was > 4 mM (inactive).
For Cc1ccc(C)n1NC(=O)c1ccco1, the Kd was > 4 mM (inactive).
With Nc1ccc(CN2CCS(=O)(=O)CC2)cc1 the Kd was > 4 mM (inactive).
With CC(C)c1c(O)ccc2c1CCC1[C@@](C)(CO)CCC[C@]21C (some centres not stated) the Kd was > 4 mM (inactive).
CC(=O)N(C)Cc1nc2ccccc2n1C was tested, and the Kd was > 4 mM (inactive).
With Cc1cccc(N2C(=O)CC(=O)NC2=O)c1 the Kd was > 4 mM (inactive).
In the case of Nc1nc(-c2ccc(O)cc2)cs1, the Kd was > 4 mM (inactive).
CNC(C)[C@H](O)c1ccccc1 (some centres not stated) was tested, and the Kd was > 4 mM (inactive).
For COC(=O)CSc1nc(N)cc(=O)[nH]1, the Kd was > 4 mM (inactive).
In the case of NCc1n[nH]c(=O)c2ccccc12, the Kd was > 4 mM (inactive).
In the case of NCc1ccccc1N1CCOCC1, the Kd was > 4 mM (inactive).
With O=C1NC(=Nc2ccccc2Cl)SC1(CO)CO the Kd was > 4 mM (inactive).
In the case of Cc1cc(NC(=O)c2cccc(S(C)(=O)=O)c2)no1, the Kd was > 4 mM (inactive).
With CN1CC(=O)N=C1N the Kd was > 4 mM (inactive).
Cn1c(=O)cc(N2CCCCC2)[nH]c1=O was tested, and the Kd was > 4 mM (inactive).
